Results reported in PMC9267128, “New 2-[(4-Amino-6-N-substituted-1,3,5-triazin-2-yl)methylthio]-N-(imidazolidin-2-ylidene)-4-chloro-5-methylbenzenesulfonamide Derivatives, Design, Synthesis and Anticancer Evaluation” (International Journal of Molecular Sciences, 2022).

Key:
MCF-7 (breast cancer) = test: MTT cell viability assay, MCF-7; assay type: cell-based, human; conditions: Homo sapiens, MCF7, 72 h, MTT assay, 72 h of incubation
Procedure, shortened: (§1)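 Cells in DMEM with 10% FBS, 3 × 10^3 per well, exposed to compounds at 1–100 µM for 72 h at 37 °C. MTT at 0.5 mg/mL for 2 h, formazan dissolved in DMSO and read at 550 nm. Mean ± SD of at least three independent experiments, each in triplicate.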

[1] = test system: HaCaT (human keratinocyte cell line); test: MTT cell viability assay, non-cancerous HaCaT; assay type: cell-based; conditions: Homo sapiens, HaCaT, 72 h, 72 h of incubation, non-cancerous keratinocytes
Procedure, shortened: as §1

HeLa (cervical cancer) = test: MTT cell viability assay, HeLa; assay type: cell-based, human; conditions: Homo sapiens, HeLa; MTT assay, 72 h of incubation
Procedure, shortened: (§2)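 HCT-116 and HeLa cells in DMEM/10% FBS exposed 72 h to compounds over 1–100 µM. Viability by MTT (0.5 mg/mL, 2 h, 37 °C), formazan dissolved in DMSO and read at 550 nm; mean ± SD of at least three independent experiments.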

HCT-116 (colon cancer) = test: MTT cell viability assay, HCT-116; assay type: cell-based, human; conditions: Homo sapiens, HCT-116, 72 h, MTT assay, 72 h of incubation
Procedure, shortened: as §2

SMILES	IC50 (MCF-7 (breast cancer))	IC50 [1]	IC50 (HeLa (cervical cancer))	IC50 (HCT-116 (colon cancer))
Cc1cc(S(=O)(=O)N=C2NCCN2Cc2ccc(C(F)(F)F)cc2)c(SCc2nc(N)nc(N3CCCc4ccccc43)n2)cc1Cl [Compound 121]	14 ± 1 µM	24 ± 1 µM	13 ± 1 µM	6 ± 0.1 µM
Cc1cc(S(=O)(=O)N=C2NCCN2Cc2ccc(F)cc2)c(SCc2nc(N)nc(N3CCN(c4ccc(Cl)c(Cl)c4)CC3)n2)cc1Cl [Compound 98]	7 ± 0.4 µM	18 ± 1 µM	8 ± 0.4 µM	7 ± 0.1 µM
COc1ccc(N2CCN(c3nc(N)nc(CSc4cc(Cl)c(C)cc4S(=O)(=O)N=C4NCCN4Cc4cccc(C(F)(F)F)c4)n3)CC2)cc1 [Compound 116]	8.5 ± 0.3 µM	31 ± 2 µM	17 ± 1 µM	6 ± 0.2 µM
Cc1cc(S(=O)(=O)N=C2NCCN2Cc2ccc(C(F)(F)F)cc2)c(SCc2nc(N)nc(NCc3ccccc3)n2)cc1Cl [Compound 127]	17.5 ± 1 µM	39 ± 2 µM	18 ± 1 µM	17 ± 0.5 µM
COc1ccc(Nc2nc(N)nc(CSc3cc(Cl)c(C)cc3S(=O)(=O)N=C3NCCN3Cc3ccccc3)n2)cc1 [Compound 52]	64 ± 2 µM	92 ± 3 µM	61 ± 2 µM	37 ± 0.5 µM
Cc1cc(S(=O)(=O)N=C2NCCN2Cc2ccc(C(F)(F)F)cc2)c(SCc2nc(N)nc(Nc3ccccc3)n2)cc1Cl [Compound 122]	20 ± 1 µM	35 ± 1 µM	19 ± 0.5 µM	14 ± 0.4 µM
Cc1cc(S(=O)(=O)N=C2NCCN2)c(SCc2nc(N)nc(N3CCN(c4ccc(Cl)cc4)CC3)n2)cc1Cl [Compound 36]	13 ± 0.1 µM	28 ± 1 µM	12 ± 0.1 µM	12 ± 0.1 µM
Cc1cc(S(=O)(=O)N=C2NCCN2Cc2ccc(C(F)(F)F)cc2)c(SCc2nc(N)nc(N3CCN(c4ccc(F)cc4)CC3)n2)cc1Cl [Compound 132]	17 ± 0.4 µM	26 ± 1 µM	16 ± 1 µM	8 ± 0.2 µM
Cc1cc(S(=O)(=O)N=C2NCCN2)c(SCc2nc(N)nc(N3CCN(c4ccc(C(F)(F)F)cc4)CC3)n2)cc1Cl [Compound 34]	12 ± 0.5 µM	41 ± 1 µM	24 ± 2 µM	18 ± 1 µM
Cc1cc(S(=O)(=O)N=C2NCCN2)c(SCc2nc(N)nc(N3CCN(c4ccc(Cl)c(Cl)c4)CC3)n2)cc1Cl [Compound 38]	28 ± 1 µM	35 ± 1 µM	19 ± 1 µM	15 ± 0.5 µM
Cc1cc(S(=O)(=O)N=C2NCCN2Cc2ccc(Br)cc2)c(SCc2nc(N)nc(N3CCN(c4cccc(C(F)(F)F)c4)CC3)n2)cc1Cl [Compound 108]	11 ± 0.5 µM	24 ± 1 µM	11 ± 0.5 µM	10.5 ± 0.5 µM
Cc1cc(S(=O)(=O)N=C2NCCN2Cc2ccc(C(F)(F)F)cc2)c(SCc2nc(N)nc(Nc3cccc(Cl)c3)n2)cc1Cl [Compound 124]	10 ± 0.5 µM	31 ± 1 µM	15 ± 0.2 µM	9.5 ± 0.1 µM
Cc1cc(S(=O)(=O)N=C2NCCN2Cc2cc(C(F)(F)F)cc(C(F)(F)F)c2)c(SCc2nc(N)nc(N3CCN(c4ccc(Cl)c(Cl)c4)CC3)n2)cc1Cl [Compound 155]	6 ± 0.1 µM	19 ± 1 µM	10 ± 0.1 µM	5 ± 0.1 µM
COc1ccc(N2CCN(c3nc(N)nc(CSc4cc(Cl)c(C)cc4S(=O)(=O)N=C4NCCN4Cc4ccc(C(F)(F)F)cc4)n3)CC2)cc1 [Compound 139]	13 ± 1 µM	24 ± 1 µM	12 ± 1 µM	6 ± 0.1 µM
COc1ccccc1N1CCN(c2nc(N)nc(CSc3cc(Cl)c(C)cc3S(=O)(=O)N=C3NCCN3Cc3ccccc3)n2)CC1 [Compound 66]	29 ± 1 µM	36 ± 2 µM	20 ± 1 µM	12 ± 0.4 µM
Cc1cc(S(=O)(=O)N=C2NCCN2Cc2ccc(F)cc2)c(SCc2nc(N)nc(N3CCc4ccccc43)n2)cc1Cl [Compound 83]	14 ± 1 µM	32 ± 1 µM	12 ± 3 µM	10 ± 0.5 µM

SMILES	IC50 (MCF-7 (breast cancer))	IC50 [1]	IC50 (HeLa (cervical cancer))	IC50 (HCT-116 (colon cancer))
COc1ccc(N2CCN(c3nc(N)nc(CSc4cc(Cl)c(C)cc4S(=O)(=O)N=C4NCCN4)n3)CC2)cc1 [Compound 40]	28 ± 2 µM	45 ± 3 µM	23 ± 1 µM	21 ± 0.5 µM
Cc1cc(S(=O)(=O)N=C2NCCN2Cc2ccccc2)c(SCc2nc(N)nc(N3CCN(c4ccc(C(F)(F)F)cc4)CC3)n2)cc1Cl [Compound 60]	14 ± 0.3 µM	23 ± 1 µM	9 ± 0.5 µM	8 ± 0.3 µM
Cc1cc(S(=O)(=O)N=C2NCCN2Cc2ccc(C(F)(F)F)cc2)c(SCc2nc(N)nc(N3CCN(c4cccc(C(F)(F)F)c4)CC3)n2)cc1Cl [Compound 135]	6.5 ± 0.3 µM	19 ± 1 µM	7 ± 0.2 µM	5 ± 0.2 µM
Cc1cc(S(=O)(=O)N=C2NCCN2)c(SCc2nc(N)nc(N3CCC(Cc4ccccc4)CC3)n2)cc1Cl [Compound 43]	22 ± 0.5 µM	43 ± 2 µM	19 ± 0.5 µM	17 ± 1 µM
Cc1cc(S(=O)(=O)N=C2NCCN2Cc2ccc(C(F)(F)F)cc2)c(SCc2nc(N)nc(Nc3ccc(F)cc3)n2)cc1Cl [Compound 123]	21 ± 0.6 µM	30 ± 1 µM	18 ± 1 µM	12 ± 0.5 µM
COc1ccc(Nc2nc(N)nc(CSc3cc(Cl)c(C)cc3S(=O)(=O)N=C3NCCN3Cc3ccc(F)cc3)n2)cc1 [Compound 88]	31 ± 1 µM	43 ± 2 µM	25 ± 2 µM	17 ± 0.5 µM
Cc1cc(S(=O)(=O)N=C2NCCN2Cc2cc(C(F)(F)F)cc(C(F)(F)F)c2)c(SCc2nc(N)nc(N3CCN(c4ccc(F)cc4)CC3)n2)cc1Cl [Compound 151]	6 ± 0.1 µM	28 ± 1 µM	15 ± 1 µM	6 ± 0.1 µM
Cc1cc(S(=O)(=O)N=C2NCCN2)c(SCc2nc(N)nc(N3CCN(c4cccc(C(F)(F)F)c4)CC3)n2)cc1Cl [Compound 35]	16 ± 1 µM	32 ± 2 µM	16 ± 1 µM	14 ± 0.7 µM
Cc1cc(S(=O)(=O)N=C2NCCN2Cc2cc(C(F)(F)F)cc(C(F)(F)F)c2)c(SCc2nc(N)nc(N3CCc4ccccc43)n2)cc1Cl [Compound 144]	8 ± 0.2 µM	27 ± 1 µM	13 ± 0.2 µM	8 ± 0.5 µM
Cc1cc(S(=O)(=O)N=C2NCCN2Cc2ccc(Br)cc2)c(SCc2nc(N)nc(N3CCc4ccccc43)n2)cc1Cl [Compound 102]	7.5 ± 0.4 µM	33 ± 1 µM	17 ± 1 µM	8 ± 0.4 µM
Cc1cc(S(=O)(=O)N=C2NCCN2Cc2cccc3ccccc23)c(SCc2nc(N)nc(N3CCN(c4ccccc4)CC3)n2)cc1Cl [Compound 77]	29 ± 1 µM	220 ± 11 µM	110 ± 5 µM	40 ± 1 µM
COc1ccc(Nc2nc(N)nc(CSc3cc(Cl)c(C)cc3S(=O)(=O)N=C3NCCN3Cc3ccc(C(F)(F)F)cc3)n2)cc1 [Compound 126]	21 ± 1 µM	37 ± 1 µM	20 ± 1 µM	11 ± 0.6 µM
Cc1cc(S(=O)(=O)N=C2NCCN2Cc2cccc(C(F)(F)F)c2)c(SCc2nc(N)nc(N3CCCc4ccccc43)n2)cc1Cl [Compound 112]	17 ± 1 µM	29 ± 1 µM	15.5 ± 1 µM	15 ± 0.3 µM
Cc1cc(S(=O)(=O)N=C2NCCCN2Cc2ccc(C(F)(F)F)cc2)c(SCc2nc(N)nc(N3CCN(c4cccc(C(F)(F)F)c4)CC3)n2)cc1Cl [Compound 160]	12 ± 0.5 µM	23 ± 1 µM	8.5 ± 0.3 µM	10.5 ± 0.4 µM
Cc1cc(S(=O)(=O)N=C2NCCN2Cc2ccc(C(F)(F)F)cc2)c(SCc2nc(N)nc(N3CCN(c4cccc(Cl)c4)CC3)n2)cc1Cl [Compound 137]	7 ± 0.4 µM	21 ± 1 µM	12 ± 0.6 µM	6 ± 0.2 µM
